Measurements as given in ChEMBL document CHEMBL3785042, “Discovery of MK-8831, A Novel Spiro-Proline Macrocycle as a Pan-Genotypic HCV-NS3/4a Protease Inhibitor” (ACS Med Chem Lett, 2016).
pEC50, pIC50: −log10 of the molar value.

Columns and labels:
Hepatitis C virus [1] = test: Antiviral activity against HCV genotype 1a infected in human HuH7 cells assessed as inhibition of viral replication after 72 hrs by RT-PCR method; format: functional, organism-based, Hepacivirus hominis; conditions: subtype 1a, Huh-7, 72 h
Liver = test: Drug uptake in rat liver at 40 mg/kg/day; format: ADME, organism-based; conditions: in vivo, read-out: Drug uptake
Hepatitis C virus [2] = test: Antiviral activity against HCV genotype 3a infected in human HuH7 cells assessed as inhibition of viral replication after 72 hrs by RT-PCR method in presence of 100% normal human serum; format: functional, Hepacivirus hominis; conditions: Huh-7, 72 h
Rattus norvegicus [3] = species on record: Rattus norvegicus; test: Protein binding in rat; format: ADME, organism-based; conditions: in vivo
Canis familiaris [4] = species on record: Canis familiaris; test: Protein binding in dog; format: ADME, organism-based, Canis lupus familiaris; conditions: in vivo
[5] = AUC (0 to 24 hrs) in rat at 5 mg/kg, po; format: ADME, organism-based; parameters: dose 5 mg/kg, time < 24 hr, route oral; conditions: in vivo
Canis familiaris [6] = test: Toxicity in conscious telemetered dog assessed as effect on respiratory function; format: organism-based, Canis lupus familiaris; conditions: in vivo
Hepatitis C virus [7] = test: Antiviral activity against HCV genotype 2b infected in human HuH7 cells assessed as inhibition of viral replication after 72 hrs by RT-PCR method; format: functional, organism-based, Hepacivirus hominis; conditions: Huh-7, 72 h
Cytochrome P450 2D6 = Cytochrome P450 2D6 (Homo sapiens, UniProt P10635); test: Inhibition of CYP2D6 (unknown origin) up to 50 uM; format: ADME
Rattus norvegicus [8] = test: Toxicity in telemetered rat up to 40 mg/kg; format: organism-based; conditions: in vivo
Hepatitis C virus [9] = test: Antiviral activity against HCV genotype 2a infected in human HuH7 cells assessed as inhibition of viral replication after 72 hrs by RT-PCR method in presence of 100% normal human serum; format: functional, Hepacivirus hominis; conditions: Huh-7, 72 h
Hepatitis C virus [10] = test: Antiviral activity against HCV genotype 1b infected in human HuH7 cells assessed as inhibition of viral replication after 72 hrs by RT-PCR method; format: functional, organism-based, Hepacivirus hominis; conditions: Huh-7, 72 h
[11] = biological target: Hepatitis C virus serine protease, NS3/NS4A (Hepatitis C virus, UniProt A3EZI9+D2K2A8, R155K); test: Inhibition of HCV genotype 1b NS3/4A protease R155K mutant using Ac-C(Eu)DDMEEAbu[COO]ASK(QSY7)-amide as substrate preincubated for 30 mins followed by substrate addition measured after 2.5 hrs by TRF assay; parameters: species or system Hepatitis C virus subtype 1b
Hepatitis C virus [12] = test: Antiviral activity against HCV genotype 2a infected in human HuH7 cells assessed as inhibition of viral replication after 72 hrs by RT-PCR method; format: functional, organism-based, Hepacivirus hominis; conditions: Huh-7, 72 h
Canis familiaris [13] = test: Toxicity in conscious telemetered dog assessed as effect on body temperature; format: organism-based, Canis lupus familiaris; conditions: in vivo
Canis familiaris [14] = test: Toxicity in conscious telemetered dog assessed as effect on blood pressure; format: organism-based, Canis lupus familiaris; conditions: in vivo
[15] = Inhibition of HCV genotype 1b full length NS3/4A protease using Ac-C(Eu)DDMEEAbu[COO]ASK(QSY7)-amide as substrate preincubated for 30 mins followed by substrate addition measured after 2.5 hrs by TRF assay; parameters: species or system Hepatitis C virus subtype 1b
Cytochrome P450 2C9 = Cytochrome P450 2C9 (Homo sapiens, UniProt P11712); test: Inhibition of CYP2C9 (unknown origin) up to 50 uM; format: ADME
Canis familiaris [16] = test: Toxicity in conscious telemetered dog assessed as effect on ECG parameters; format: organism-based, Canis lupus familiaris; conditions: in vivo
Canis familiaris [17] = test: Toxicity in conscious telemetered dog assessed as effect on heart rate; format: organism-based, Canis lupus familiaris; conditions: in vivo
Rattus norvegicus [18] = test: Toxicity in rat at 40 mg/kg/day measured for 3 days of dosing; format: organism-based; conditions: in vivo, 72 h
Hepatitis C virus [19] = test: Antiviral activity against HCV genotype 1b infected in human HuH7 cells assessed as inhibition of viral replication after 72 hrs by RT-PCR method in presence of 100% normal human serum; format: functional, Hepacivirus hominis; conditions: Huh-7, 72 h
[20] = Inhibition of HCV genotype 1a NS3/4A protease using Ac-C(Eu)DDMEEAbu[COO]ASK(QSY7)-amide as substrate preincubated for 30 mins followed by substrate addition measured after 2.5 hrs by TRF assay; parameters: species or system Hepatitis C virus subtype 1a
[21] = Inhibition of HCV genotype 3a full length NS3/4A protease using Ac-C(Eu)DDMEEAbu[COO]ASK(QSY7)-amide as substrate preincubated for 30 mins followed by substrate addition measured after 2.5 hrs by TRF assay; parameters: species or system Hepatitis C virus subtype 3a
Cytochrome P450 3A4 = Cytochrome P450 3A4 (Homo sapiens, UniProt P08684); test: Inhibition of CYP3A4 (unknown origin) up to 50 uM; format: ADME
[22] = Inhibition of HCV genotype 1b NS3/4A protease D168Y mutant using Ac-C(Eu)DDMEEAbu[COO]ASK(QSY7)-amide as substrate preincubated for 30 mins followed by substrate addition measured after 2.5 hrs by TRF assay; parameters: species or system Hepatitis C virus subtype 1b
Rattus norvegicus [23] = test: Hepatotoxicity in rat at 134 uM measured for 3 days of dosing; format: toxicity, organism-based; conditions: in vivo, 72 h
[24] = Oral bioavailability in dog at 1 mg/kg; format: ADME, organism-based, Canis lupus familiaris; conditions: in vivo
Hepatitis C virus [25] = test: Antiviral activity against HCV genotype 1a infected in human HuH7 cells assessed as inhibition of viral replication after 72 hrs by RT-PCR method in presence of 100% normal human serum; format: functional, Hepacivirus hominis; conditions: subtype 1a, Huh-7, 72 h
[26] = Oral bioavailability in rat at 5 mg/kg; format: ADME, organism-based; conditions: in vivo
[27] = Inhibition of HCV genotype 1b NS3/4A protease A156V mutant using Ac-C(Eu)DDMEEAbu[COO]ASK(QSY7)-amide as substrate preincubated for 30 mins followed by substrate addition measured after 2.5 hrs by TRF assay; parameters: species or system Hepatitis C virus subtype 1b
Salmonella typhimurium = test: Mutagenicity in Salmonella typhimurium by Ames test; format: toxicity, organism-based; conditions: salmonella enterica subsp. enterica serovar typhimurium
Cytochrome P450 2C8 = biological target: T1, Cytochrome P450 2C8 (Homo sapiens, UniProt P10632); test: Inhibition of CYP2C8 (unknown origin) up to 20 uM; format: ADME
T1 sequence (P10632 whole entry): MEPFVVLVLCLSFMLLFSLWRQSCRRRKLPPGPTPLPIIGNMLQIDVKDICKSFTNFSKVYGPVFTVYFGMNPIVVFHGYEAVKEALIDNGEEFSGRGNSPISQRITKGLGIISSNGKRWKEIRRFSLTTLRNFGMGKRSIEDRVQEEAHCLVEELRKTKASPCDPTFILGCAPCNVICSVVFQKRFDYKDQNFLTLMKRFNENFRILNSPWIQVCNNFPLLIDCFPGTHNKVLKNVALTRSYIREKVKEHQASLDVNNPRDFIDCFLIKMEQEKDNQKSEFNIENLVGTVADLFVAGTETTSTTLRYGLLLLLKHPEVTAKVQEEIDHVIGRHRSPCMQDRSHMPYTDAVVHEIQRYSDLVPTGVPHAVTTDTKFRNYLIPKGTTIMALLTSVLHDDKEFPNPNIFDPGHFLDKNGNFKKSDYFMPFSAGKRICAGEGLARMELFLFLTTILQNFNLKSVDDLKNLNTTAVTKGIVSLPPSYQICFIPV

Canis familiaris [28] = test: Toxicity in telemetered dog up to 40 mg/kg; format: organism-based, Canis lupus familiaris; conditions: in vivo
[29] = Inhibition of HCV genotype 1b NS3/4A protease A156T mutant using Ac-C(Eu)DDMEEAbu[COO]ASK(QSY7)-amide as substrate preincubated for 30 mins followed by substrate addition measured after 2.5 hrs by TRF assay; parameters: species or system Hepatitis C virus subtype 1b
Hepatitis C virus [30] = test: Antiviral activity against HCV genotype 3a infected in human HuH7 cells assessed as inhibition of viral replication after 72 hrs by RT-PCR method; format: functional, organism-based, Hepacivirus hominis; conditions: Huh-7, 72 h

In the case of `COc1ccc2nc(C(F)(F)F)c3c(c2c1)CC[C@]1(C[C@H]2C(=O)N[C@]4(C(=O)NS(=O)(=O)C5(C)CC5)C[C@H]4/C=C\CCCCC[C@H](NC(=O)OCC(C)C)C(=O)N2C1)O3`, the pEC50 (Hepatitis C virus [1]) was 9.15, the concentration (Liver) was 134 µM and the EC90 (Hepatitis C virus [2]) was 90 nM. For the same compound, the PB (Rattus norvegicus [3]) was “Active”, the PB (Canis familiaris [4]) was “Active” and the AUC(0-t) at 24 h [5] was 9 µM·h. The Activity (Canis familiaris [6]) was “Non-toxic”, the pEC50 (Hepatitis C virus [7]) was 8.47 and the “inhibition (INH)” value (Cytochrome P450 2D6) was “Not Active”. The Activity (Rattus norvegicus [8]) was “Non-toxic”, the EC90 (Hepatitis C virus [9]) was 60 nM and the pEC50 (Hepatitis C virus [10]) was 9.10. The pIC50 [11] was 11.00, the pEC50 (Hepatitis C virus [12]) was 9.05 and the Activity (Canis familiaris [13]) was “Non-toxic”. The Activity (Canis familiaris [14]) was “Non-toxic”, the pIC50 [15] was 11.40 and the “inhibition (INH)” value (Cytochrome P450 2C9) was “Not Active”. The Activity (Canis familiaris [16]) was “Non-toxic”, the Activity (Canis familiaris [17]) was “Non-toxic” and the Activity (Rattus norvegicus [18]) was “Non-toxic”. For the same compound, the EC90 (Hepatitis C virus [19]) was 20 nM, the pIC50 [20] was 11.05 and the pIC50 [21] was 9.39. For the same compound, the “inhibition (INH)” value (Cytochrome P450 3A4) was “Not Active”, the pIC50 [22] was 10.64 and the Activity (Rattus norvegicus [23]) was “Non-toxic”. It also gave a bioavailability [24] of 17%, an EC90 (Hepatitis C virus [25]) of 68 nM and a bioavailability [26] of 31%. For the same compound, the pIC50 [27] was 8.56, the Activity (Salmonella typhimurium) was “Non-toxic” and the “inhibition (INH)” value (Cytochrome P450 2C8) was “Not Active”. For the same compound, the Activity (Canis familiaris [28]) was “Non-toxic”, the pIC50 [29] was 9.32 and the pEC50 (Hepatitis C virus [30]) was 8.77.
